Laboratory results from ChEMBL document CHEMBL1201862, “PubChem BioAssay data set” (2004).
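Each compound was tested at five concentrations against cells in 96-well plates for 48 hours. GI50 marks 50% less growth.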 Calls of active or inactive are those of the source. No stated cut-off is given here; in the data, active = GI50 up to about 1.1 µM and inactive = higher.

How the values were obtained:
Assay in all cases: NCI-60 cell line screen, 48 h
SN12C = tested on: SN12C
UO-31 = tested on: UO-31
NCI-H23 = tested on: NCI-H23
BT-549 = tested on: BT-549
TK-10 = tested on: TK-10
SNB-19 = tested on: SNB-19
SK-MEL-28 = tested on: SK-MEL-28
U-251 = tested on: U-251
NCI-H522 = tested on: NCI-H522
IGROV-1 = tested on: IGROV-1
OVCAR-8 = tested on: OVCAR-8
LOX IMVI = tested on: LOX IMVI
MDA-N = tested on: MDA-N
A549 = tested on: A549
CCRF-CEM = tested on: CCRF-CEM
HOP-62 = tested on: HOP-62
NCI/ADR-RES = tested on: NCI/ADR-RES
HCT-116 = tested on: HCT-116
A498 = tested on: A498
SNB-75 = tested on: SNB-75

Row | Structure (SMILES) | GI50 (SN12C) | GI50 (UO-31) | GI50 (NCI-H23) | GI50 (BT-549) | GI50 (TK-10) | GI50 (SNB-19) | GI50 (SK-MEL-28) | GI50 (U-251) | GI50 (NCI-H522) | GI50 (IGROV-1) | GI50 (OVCAR-8) | GI50 (LOX IMVI) | GI50 (MDA-N) | GI50 (A549) | GI50 (CCRF-CEM) | GI50 (HOP-62) | GI50 (NCI/ADR-RES) | GI50 (HCT-116) | GI50 (A498) | GI50 (SNB-75)
1 | N#CC(C#N)=NNc1ccc2cn[nH]c2c1 | 40.6 µM (inactive) | 14 µM (inactive) | 19.1 µM (inactive) | > 100 µM (inactive) | 26.7 µM (inactive) | > 100 µM (inactive) | > 100 µM (inactive) | > 100 µM (inactive) | 12.2 µM (inactive) | > 100 µM (inactive) | 51.4 µM (inactive) | 31.4 µM (inactive) | 43.9 µM (inactive) | > 100 µM (inactive) | 13.6 µM (inactive) | > 100 µM (inactive) | > 100 µM (inactive) | 20.5 µM (inactive) | > 100 µM (inactive) | –
2 | CC1(C)N=C(N)N=C(N)N1c1ccc(CCCCc2ccc(Cl)cc2Cl)cc1 | 0.502 µM (active) | 21.2 µM (inactive) | 0.339 µM (active) | 1.85 µM (inactive) | 3.13 µM (inactive) | 0.527 µM (active) | 2.88 µM (inactive) | 0.245 µM (active) | 0.433 µM (active) | 0.451 µM (active) | 0.598 µM (active) | 0.417 µM (active) | 0.982 µM (active) | 0.335 µM (active) | 0.736 µM (active) | 1.08 µM (active) | 93.5 µM (inactive) | 0.247 µM (active) | 12.8 µM (inactive) | –
3 | N[C@@H](CCC(=O)NC(Cc1ccccc1)C(=O)NCP(=O)(O)O)C(=O)O (stereo partly drawn) | > 100 µM (inactive) | > 100 µM (inactive) | > 100 µM (inactive) | 61.8 µM (inactive) | > 100 µM (inactive) | > 100 µM (inactive) | > 100 µM (inactive) | > 100 µM (inactive) | > 100 µM (inactive) | > 100 µM (inactive) | > 100 µM (inactive) | > 100 µM (inactive) | > 100 µM (inactive) | > 100 µM (inactive) | – | > 100 µM (inactive) | > 100 µM (inactive) | > 100 µM (inactive) | > 100 µM (inactive) | –
4 | Cc1ccc(C(=O)Oc2ccc(/C=C3\CCC/C(=C\c4ccc(OC(=O)c5ccc(C)cc5)cc4)C3=O)cc2)cc1 | > 100 µM (inactive) | > 100 µM (inactive) | > 100 µM (inactive) | > 100 µM (inactive) | > 100 µM (inactive) | > 100 µM (inactive) | > 100 µM (inactive) | > 100 µM (inactive) | > 100 µM (inactive) | > 100 µM (inactive) | > 100 µM (inactive) | > 100 µM (inactive) | > 100 µM (inactive) | > 100 µM (inactive) | > 100 µM (inactive) | > 100 µM (inactive) | > 100 µM (inactive) | > 100 µM (inactive) | – | 79.8 µM (inactive)
5 | Cn1nc2c(c1N)Cc1c(nn(C)c1N)-c1ccccc1-2 | > 100 µM (inactive) | > 100 µM (inactive) | > 100 µM (inactive) | > 100 µM (inactive) | > 100 µM (inactive) | > 100 µM (inactive) | > 100 µM (inactive) | > 100 µM (inactive) | > 100 µM (inactive) | > 100 µM (inactive) | > 100 µM (inactive) | > 100 µM (inactive) | > 100 µM (inactive) | > 100 µM (inactive) | > 100 µM (inactive) | > 100 µM (inactive) | > 100 µM (inactive) | > 100 µM (inactive) | 20.2 µM (inactive) | –
6 | CC1CC(OP(=O)(OCc2ccccc2)OCc2ccccc2)[C@@H](OCc2ccccc2)C(OCc2ccccc2)C1OCc1ccccc1 (stereo partly drawn) | > 100 µM (inactive) | 15.5 µM (inactive) | 25.3 µM (inactive) | 79.3 µM (inactive) | 22.2 µM (inactive) | 46.8 µM (inactive) | > 100 µM (inactive) | 20.1 µM (inactive) | 81.8 µM (inactive) | 64.7 µM (inactive) | > 100 µM (inactive) | > 100 µM (inactive) | > 100 µM (inactive) | 24.7 µM (inactive) | > 100 µM (inactive) | > 100 µM (inactive) | > 100 µM (inactive) | 17.9 µM (inactive) | – | 39.5 µM (inactive)
